According to BigSolDB 2.1:

Settings: in water

CC(C)(C)[C@H](O)[C@H](Cc1ccc(Cl)cc1)n1cncn1 (racemic)
Settings | solubility (mole fraction)
278.15 K | 3.96e-05
280.65 K | 5.22e-05
283.15 K | 6.56e-05
285.65 K | 7.76e-05
288.15 K | 8.75e-05
290.65 K | 0.000111
293.15 K | 0.000146
295.65 K | 0.000181
298.15 K | 0.000231
300.65 K | 0.000295
303.15 K | 0.000346
305.65 K | 0.000408
308.15 K | 0.000458
310.65 K | 0.00054
313.15 K | 0.000626
